Measurements taken from ChEMBL document CHEMBL3045599, “SYNTHESIS, ANOREXIGENIC ACTIVITY AND QSAR OF SUBSTITUTED ARYLOXYPROPANOLAMINES” (Med Chem Res, 2004).
The source made the active and inactive calls. The rule behind the calls is not given here.

What was measured:
Mus musculus [1] = assay: Effect on CNS in Mus musculus Swiss (mouse) assessed as gross behavioural effects at 75 umol/kg, ip; type: ADME, organism-based, Central nervous system; conditions: in vivo
Mus musculus [2] = assay: Effect on CNS in Mus musculus Swiss (mouse) assessed as reversal of resperine-induced sedation at 75 umol/kg, ip; type: ADME, organism-based, Central nervous system; conditions: in vivo
Mus musculus [3] = assay: Antidepressant activity in Mus musculus Swiss (mouse) at 75 umol/kg, ip; type: functional, organism-based
Mus musculus [4] = assay: Anorexigenic activity in Mus musculus Swiss (mouse) at 75 umol/kg, ip measured for 15 min relative to control; type: functional
Mus musculus [5] = assay: Effect on CNS in Mus musculus Swiss (mouse) assessed as reversal of resperine-induced ptosis at 75 umol/kg, ip; type: ADME, organism-based, Central nervous system; conditions: in vivo

Row | Compound | Activity (Mus musculus [1]) | Activity (Mus musculus [2]) | Activity (Mus musculus [3]) | Activity (Mus musculus [4]) | Activity (Mus musculus [5])
1 | CN(CCC(Oc1ccc(C(F)(F)F)cc1)c1ccccc1)CC(O)COc1cccc(C(F)(F)F)c1 (stereo not drawn) | Non-toxic | Non-toxic | inactive | 32% | Non-toxic
2 | CC(=O)c1ccc(OCC(O)CN(C)CCC(Oc2ccc(C(F)(F)F)cc2)c2ccccc2)cc1 (stereo not drawn) | Non-toxic | Non-toxic | inactive | 32% | Non-toxic
3 | COc1ccc(OCC(O)CN(C)CCC(Oc2ccc(C(F)(F)F)cc2)c2ccccc2)cc1 (stereo not drawn) | Non-toxic | Non-toxic | inactive | 52% | Non-toxic
4 | CNCCC(Oc1ccc(C(F)(F)F)cc1)c1ccccc1 (stereo not drawn) [FLUOXETINE] | – | 100% | – | 72% | 100%
5 | CCNc1ccc(OCC(O)CN(C)CCC(Oc2ccc(C(F)(F)F)cc2)c2ccccc2)cc1 (stereo not drawn) | Non-toxic | Non-toxic | inactive | 60% | Non-toxic
6 | CC(=O)Nc1ccc(OCC(O)CN(C)CCC(Oc2ccc(C(F)(F)F)cc2)c2ccccc2)cc1 (stereo not drawn) | Non-toxic | Non-toxic | inactive | 60% | Non-toxic
7 | CN(CCC(Oc1ccc(C(F)(F)F)cc1)c1ccccc1)CC(O)COc1ccc(C(F)(F)F)cc1 (stereo not drawn) | Non-toxic | Non-toxic | inactive | 32% | Non-toxic
8 | CN(CCC(Oc1ccc(C(F)(F)F)cc1)c1ccccc1)CC(O)COc1ccccc1 (stereo not drawn) | Non-toxic | Non-toxic | inactive | 52% | Non-toxic
9 | CN(CCC(Oc1ccc(C(F)(F)F)cc1)c1ccccc1)CC(O)COc1ccc(Br)cc1 (stereo not drawn) | Non-toxic | Non-toxic | inactive | 60% | Non-toxic
10 | CN(CCC(Oc1ccc(C(F)(F)F)cc1)c1ccccc1)CC(O)COc1ccc(C=O)cc1 (stereo not drawn) | Non-toxic | Non-toxic | inactive | 40% | Non-toxic
11 | CN(CCC(Oc1ccc(C(F)(F)F)cc1)c1ccccc1)CC(O)COc1ccc2ccccc2c1 (stereo not drawn) | Non-toxic | Non-toxic | inactive | 40% | Non-toxic
12 | Cc1ccccc1OCC(O)CN(C)CCC(Oc1ccc(C(F)(F)F)cc1)c1ccccc1 (stereo not drawn) | Non-toxic | Non-toxic | inactive | 60% | Non-toxic
13 | CN(CCC(Oc1ccc(C(F)(F)F)cc1)c1ccccc1)CC(O)COc1ccc(C#N)cc1 (stereo not drawn) | Non-toxic | Non-toxic | Active | 72% | Non-toxic
14 | CCC(=O)c1ccc(OCC(O)CN(C)CCC(Oc2ccc(C(F)(F)F)cc2)c2ccccc2)cc1 (stereo not drawn) | Non-toxic | Non-toxic | inactive | 36% | Non-toxic
15 | COc1ccccc1OCC(O)CN(C)CCC(Oc1ccc(C(F)(F)F)cc1)c1ccccc1 (stereo not drawn) | Non-toxic | Non-toxic | inactive | 56% | Non-toxic
16 | CN(CCC(Oc1ccc(C(F)(F)F)cc1)c1ccccc1)CC(O)COc1ccc(Cl)cc1 (stereo not drawn) | Non-toxic | Non-toxic | inactive | 28% | Non-toxic
